Patent US20170204102A1, “AGRICULTURAL AGENT CONTAINING 2,5-DIKETOPIPERAZINE DERIVATIVE AS ACTIVE INGREDIENT” (NAPRO BIOTEC INC., priority 2010, published 2017)
Where two headings read alike, the source gives them in different places.

Columns and labels:
[1] = system: PR-1α promoter fused to the GUS gene; assay: PR-1α-GUS activity in tobacco leaf; format: in vivo; details: control 54
Description: After adding 960 μL of stop buffer (0.2M sodium carbonate) to make 1 mL, fluorescence was measured using a TKO 100 fluorometer (Hoefer Scientific Instruments, USA).

[2] = system: anthracnose-causing Colletotrichum orbiculare; format: in vivo; details: tobacco leaf, control 240.3
[3] = system: Pectobacterium carotovorum SCC1; assay: Inhibition of soft rot lesion in tobacco leaf; format: in vivo
[4] = system: Pectobacterium carotovorum SCC1; assay: Inhibition of soft rot lesion in cucumber leaf; format: in vivo
[5] = system: Colletotrichum orbiculare; format: in vivo; details: cucumber; for Number of anthractic lesions in first leaf: control 12.5; for Number of anthractic lesions in second leaf: control 96.8
PR-1 gene = details: background art; cited from earlier work
PDF1.2 gene = details: background art; cited from earlier work
cucumber leaf = assay: Promotion of growth of cucumber leaf; details: Cucumis sativus, read-out: Width of leaf
Description: Plant leaves were tested with test compounds by drenching. […] 3-5 days later, the width of the leaves was measured again to compare the growth of the leaves relative to the control group.

Colletotrichum acutatum = assay: Inhibition of anthracnose in red pepper fruit after soil drench; details: control 50
[6] = system: Pectobacterium carotovorum SCC1; assay: Inhibition of naturally occurring soft rot in Chinese cabbage hydrocultured in summer; format: in vivo; details: for Appearance of soft rot: 20 ppm, sprayed, examined 1 week later, control 58
Source text: After spraying test compounds to hydrocultured Chinese cabbage, naturally occurring soft rot was examined 1 week later.

SMILES	Area of lesion ([3]; 1 ppm, Table 4, control 100) [%]	Area of lesion ([3]; 10 ppm, Table 4, control 100) [%]	Area of lesion ([3]; 100 ppm, Table 4, control 100) [%]	Area of lesion ([4]; 1 ppm, Table 7, control 100) [%]	Area of lesion ([4]; 10 ppm, Table 7, control 100) [%]	Area of lesion ([4]; 100 ppm, Table 7, control 100) [%]	Number of anthractic lesions in first leaf ([5]; 0.1 ppm)	Number of anthractic lesions in second leaf ([5]; 0.1 ppm)	Number of anthractic lesions in first leaf ([5]; 1 ppm)	Number of anthractic lesions in second leaf ([5]; 1 ppm)	Number of anthractic lesions in first leaf ([5]; 10 ppm)	Number of anthractic lesions in second leaf ([5]; 10 ppm)	Number of anthractic lesions in first leaf ([5]; 100 ppm)	Number of anthractic lesions in second leaf ([5]; 100 ppm)	response vs control in vivo at 1 ppm (cucumber leaf) [%]	response vs control in vivo at 10 ppm (cucumber leaf) [%]	response vs control in vivo at 100 ppm (cucumber leaf) [%]	Appearance of anthracnose (Colletotrichum acutatum; 1 ppm) [%]	Appearance of anthracnose (Colletotrichum acutatum; 10 ppm) [%]	Appearance of anthracnose (Colletotrichum acutatum; 100 ppm) [%]	also measured
CSC(=O)c1cccc2nnsc12 [BTH, benzo-1,2,3-thiadiazole-7-carbothioic acid S-methyl ester, reference compound]	95	95	95	90	90	90	0.8	100.3	0.8	100.3	0.8	100.3	0.8	100.3	93.8	90.5	92	25	0	0	PR-1α-GUS activity ([1]; 1 ppm): 21,015 nM MU/10 mg/h; Number of anthractic lesions ([2]; 1 ppm): 58.3; Area of lesion ([3]; 1 ppm, Table 3, control 87.5): 52.5%; Area of lesion ([3]; 1 ppm, Table 5, control 73.75): 50%; Area of lesion ([3]; 10 ppm, Table 3, control 87.5): 52.5%; Area of lesion ([3]; 10 ppm, Table 5, control 73.75): 50%; Area of lesion ([3]; 100 ppm, Table 3, control 87.5): 52.5%; Area of lesion ([3]; 100 ppm, Table 5, control 73.75): 50%; Area of lesion ([4]; 1 ppm, Table 6, control 100): 100%; Area of lesion ([4]; 1 ppm, Table 8, control 100): 100%; Area of lesion ([4]; 10 ppm, Table 6, control 100): 100%; Area of lesion ([4]; 10 ppm, Table 8, control 100): 100%; Area of lesion ([4]; 100 ppm, Table 6, control 100): 100%; Area of lesion ([4]; 100 ppm, Table 8, control 100): 100%; Induction of expression of the PR-1 gene (PR-1 gene): induces the expression of the PR-1 gene; Induction of expression of the PDF1.2 gene (PDF1.2 gene): does not induce the expression
CC(C)C1NC(=O)C2CCCN2C1=O (stereo not drawn) [Compound No. 26, 3-isopropylhexahydropyrrolo[1,2-a]pyrazin-1,4-dione]															112	128	129				PR-1α-GUS activity ([1]; 0.1 ppm): 34,967 nM MU/10 mg/h; PR-1α-GUS activity ([1]; 1 ppm): 27,497 nM MU/10 mg/h; Number of anthractic lesions ([2]; 0.1 ppm): 67.1; Number of anthractic lesions ([2]; 1 ppm): 63.3
CCC(C)C1NC(=O)C2CCCN2C1=O (stereo not drawn) [Compound No. 28, 3-(1-methylpropyl)hexahydropyrrolo[1,2-a]pyrazin-1,4-dione]	12.5	82.5	2.5	55	83	65	5.3	55.3	2.3	62.3	12.3	87.3	10.8	77.3	100	120	129	0	25	0	Appearance of soft rot [6]: 49%; melting point: 104 to 105 °C
O=C1NCC(=O)N2CCCC12 (stereo not drawn) [Compound No. 29, hexahydropyrrolo[1,2-a]pyrazin-1,4-dione]	27.5	0	0	43	63	90	0.8	51.3	5.0	35.8	10.0	55.5	5.0	87.0	100	120	115	0	0	0	Appearance of soft rot [6]: 14%; Inhibitory effect against soft rot in Chinese cabbage (in words) ([6]; Table 11, FIG. 10): very superior inhibitory effect
